Test results taken from patent US9339503B2, “Tetrahydro-quinazolinone derivatives as TANK and PARP inhibitors” (MERCK PATENT GMBH, priority 2012, dated 2016).

Legend:
[1] = tested on: DLD-1-cancer cells; settings: cited from earlier work
[2] = biological target: T1, GST-tagged Tankyrase-2 (873-1166 aa) (Homo sapiens, UniProt Q9H2K2); test: Tankyrase 2 autoparsylation assay (HTRF enzyme assay); format: biochemical
T1 construct: GST-tagged Tankyrase-2 (873-1166 aa)
Description: (§1) The autoparsylation assay was run in two steps: the enzymatic reaction in which GST-tagged Tankyrase-1, resp Tankyrase-2 transferred biotinylated ADP-ribose to itself from biotinylated NAD as co-substrate and the detection reaction where a time resolved FRET between cryptate labelled anti-GST bound to the GST tag of the enzyme and Xlent® labelled-streptavidin bound the biotin-parsylation residue was analysed. The autoparsylation activity was detectable directly via the increase in HTRF signal.
(§2) The autoparsylation assay was performed as 384-well HTRF® (Cisbio, Codolet, France) assay format in Greiner low volume nb 384-well microtiter plates and was used for high throughput screen. 250 nM GST-tagged Tankyrase-1 (1023-1327 aa), respectively about 250 nM GST-tagged Tankyrase-2 (873-1166 aa) and 5 μM bio-NAD (Biolog, Life science Inst., Bremen, Germany) as co-substrate were incubated in a total volume of 5 μl (50 mM HEPES, 4 mM Mg-chloride, 0.05% Pluronic F-68, 1.4 mM DTT, 0.5% DMSO, pH 7.7) in the absence or presence of the test compound (10 dilution concentrations) for 90 min at 30° C. The reaction was stopped by the addition of 1 μl 50 mM EDTA solution. 2 μl of the detection solution (1.6 μM SA-Xlent® (Cisbio, Codolet, France), 7.4 nM Anti-GST-K® (Eu-labelled anti-GST, Cisbio, Codolet, France) in 50 mM HEPES, 800 mM KF, 0.1% BSA, 20 mM EDTA, 0.1% CHAPS, pH 7.0) were added. After 1 h incubation at room temperature the HTRF was measured with an Envision multimode reader (Perkin Elmer LAS Germany GmbH) at excitation wavelength 340 nm (laser mode) and emission wavelengths 615 nm and 665 nm. The ratio of the emission signals was determined. The full value used was the inhibitor-free reaction. The pharmacological zero value used was XAV-939 (Tocris) in a final concentration of 5 μM. The inhibitory values (IC50) were determined using either the program Symyx Assay Explorer® or Condosseo® from GeneData.

[3] = biological target: T2, GST-tagged Tankyrase-1 (1023-1327 aa) (Homo sapiens, UniProt O95271); test: Tankyrase 1 autoparsylation assay (HTRF enzyme assay); format: biochemical
T2 construct: GST-tagged Tankyrase-1 (1023-1327 aa)
Description: as §1, §2

[4] = tested on: tankyrase 1/2; test: Measurement of cellular inhibition of tankyrase (Axin2 level, Luminex based assay, DLD1 cells); settings: 24 hours, increase of Axin2 level, read-out: EC50 tankyrase 1/2 (cell assay)
Description: Measurement of Cellular Inhibition of Tankyrase
Since Tankyrases have been described to modulate cellular level of Axin2 (Huang et al., 2009; Nature) the increase of Axin2 level is used as read-out for determination of cellular inhibition of Tankyrases in a Luminex based assay.
Cells of the colon carcinoma cell line DLD1 are plated in 96 well plates with 1.5×10^4 cells per well. Next day, cells are treated with a serial-dilution of test compound in seven steps as triplicates with a final DMSO concentration of 0.3%. After 24 hours, cells are lysed in lysis buffer (20 mM Tris/HCl pH 8.0, 150 mM NaCl, 1% NP40, 10% Glycerol) and lysates are cleared by centrifugation through a 96 well filter plate (0.65 μm). Axin2 protein is isolated from cell lysates by incubation with a monoclonal anti-Axin2 antibody (R&D Systems #MAB6078) that is bound to fluorescent carboxybeads. Then, bound Axin2 is specifically detected with a polyclonal anti-Axin2 antibody (Cell Signaling #2151) and an appropriate PE-fluorescent secondary antibody. The amount of isolated Axin2 protein is determined in a Luminex^200 machine (Luminex Corporation) according to the manufacturer's instruction by counting 100 events per well. […] For analysis, the obtained data were normalized against the untreated solvent control and fitted for determination of the EC50 values using the Assay Explorer software (Accelrys).

[5] = biological target: T3, GST-tagged Tnks-2 (873-1166 aa) (Homo sapiens, UniProt Q9H2K2); test: TNKS 2 activity ELISA (autoparsylation assay); format: biochemical; settings: read-out: IC50 tankyrase 2 (ELISA assay)
T3 construct: GST-tagged Tnks-2 (873-1166 aa, prepared in-house); made in house
Description: (§3) Biochemical Activity Testing of TNKS 1 and 2: Activity ELISA (Autoparsylation Assay)
(§4) For analysis of autoparsylation activity of TNKS 1 and 2 an activity ELISA was performed: In the first step GST tagged TNKS was captured on a Glutathione coated plate. Then the activity assay with biotinylated NAD was performed in the absence/presence of the compounds. During the enzymatic reaction GST tagged TNKS transferred biotinylated ADP-ribose to itself from biotinylated NAD as co-substrate. For the detection streptavidin-HRP conjugate was added that bound to the biotinylated TNKS and was thereby captured to the plates. The amount of biotinylated resp autoparsylated TNKS was detected with a luminescence substrate for HRP. The level of the luminescence signal correlated directly with the amount of autoparsylated TNKS and therefore with activity of TNKS.
(§5) The activity ELISA was performed in 384 well Glutathione coated microtiter plates (Express capture Glutathione coated plate, Biocat, Heidelberg, Germany). The plates were pre-equilibrated with PBS. Then the plates were incubated with 50 μl 20 ng/well GST-tagged Tnks-1 (1023-1327 aa, prepared in-house), respectively GST-tagged Tnks-2 (873-1166 aa, prepared in-house) in assay buffer (50 mM HEPES, 4 mM Mg-chloride, 0.05% Pluronic F-68, 2 mM DTT, pH 7.7) overnight at 4° C. The plates were washed 3 times with PBS-Tween-20. The wells were blocked by incubation at room temperature for 20 minutes with 50 μl blocking buffer (PBS, 0.05% Tween-20, 0.5% BSA). Afterwards the plates were washed 3 times with PBS-Tween-20. The enzymatic reaction was performed in 50 μl reaction solution (50 mM HEPES, 4 mM Mg-chloride, 0.05% Pluronic F-68, 1.4 mM DTT, 0.5% DMSO, pH 7.7) with 10 μM bio-NAD (Biolog, Life science Inst., Bremen, Germany) as co-substrate in the absence or presence of the test compound (10 dilution concentrations) for 1 hour at 30° C. The reaction was stopped by 3 times washing with PBS-Tween-20. For the detection 50 μl of 20 ng/μl Streptavidin, HRP conjugate (MoBiTec, Göttingen, Germany) in PBS/0.05% Tween-20/0.01% BSA were added and the plates were incubated for 30 minutes at room temperature. After three times washing with PBS-Tween-20 50 μl of SuperSignal ELISA Femto Maximum sensitivity substrate solution (ThermoFisherScientific (Pierce), Bonn, Germany) were added. Following a 1 minute incubation at room temperature luminescence signals were measured with an Envision multimode reader (Perkin Elmer LAS Germany GmbH) at 700 nm. The full value used was the inhibitor-free reaction. The pharmacological zero value used was XAV-939 (Tocris) in a final concentration of 5 μM. The inhibitory values (IC50) were determined using either the program Symyx Assay Explorer® or Condosseo® from GeneData.

[6] = biological target: T4, GST-tagged Tnks-1 (1023-1327 aa) (Homo sapiens, UniProt O95271); test: TNKS 1 activity ELISA (autoparsylation assay); format: biochemical; settings: read-out: IC50 tankyrase 1 (ELISA assay)
T4 construct: GST-tagged Tnks-1 (1023-1327 aa, prepared in-house); made in house
Description: as §3, §4, §5

[7] = biological target: T5, His-tagged Parp-1 (Homo sapiens, UniProt P09874); test: PARP-1 autoparsylation assay (HTRF); format: biochemical; settings: read-out: IC50 PARP1
T5 construct: purchased Enzo Life Sciences GmbH, Lörrach, Germany
Description: Biochemical Activity Testing of PARP-1: Autoparsylation Assay
as §1, with “His-tagged Parp-1” for “GST-tagged Tankyrase-1, resp Tankyrase-2”, “ADP-ribose/ADP-ribose” for “ADP-ribose”, “NAD/NAD” for “NAD”, “anti-His antibody” for “anti-GST”, “His” for “GST”
The autoparsylation assay was performed as 384-well HTRF® (Cisbio, Codolet, France) assay format in Greiner low volume nb 384-well microtiter plates. 35 nM His-tagged Parp-1 (human, recombinant, Enzo Life Sciences GmbH, Lörrach, Germany) and a mixture of 125 nM bio-NAD (Biolog, Life science Inst., Bremen, Germany) and 800 nM NAD as co-substrate were incubated in a total volume of 6 μl (100 mM Tris/HCl, 4 mM Mg-chloride, 0.01% IGEPAL® CA630, 1 mM DTT, 0.5% DMSO, pH 8, 13 ng/μl activated DNA (BPS Bioscience, San Diego, US)) in the absence or presence of the test compound (10 dilution concentrations) for 150 min at 23° C. The reaction was stopped by the addition of 4 μl of the Stop/detection solution (70 nM SA-Xlent® (Cisbio, Codolet, France), 2.5 nM Anti-His-K® (Eu-labelled anti-His, Cisbio, Codolet, France) in 50 mM HEPES, 400 mM KF, 0.1% BSA, 20 mM EDTA, pH 7.0). After 1 h incubation at room temperature the HTRF was measured with an Envision multimode reader (Perkin Elmer LAS Germany GmbH) at excitation wavelength 340 nm (laser mode) and emission wavelengths 615 nm and 665 nm. The ratio of the emission signals was determined. The full value used was the inhibitor-free reaction. The pharmacological zero value used was Olaparib (LClabs, Woburn, US) in a final concentration of 1 μM. The inhibitory values (IC50) were determined using either the program Symyx Assay Explorer® or Condosseo® from GeneData.

T4 sequence (O95271 1023-1327): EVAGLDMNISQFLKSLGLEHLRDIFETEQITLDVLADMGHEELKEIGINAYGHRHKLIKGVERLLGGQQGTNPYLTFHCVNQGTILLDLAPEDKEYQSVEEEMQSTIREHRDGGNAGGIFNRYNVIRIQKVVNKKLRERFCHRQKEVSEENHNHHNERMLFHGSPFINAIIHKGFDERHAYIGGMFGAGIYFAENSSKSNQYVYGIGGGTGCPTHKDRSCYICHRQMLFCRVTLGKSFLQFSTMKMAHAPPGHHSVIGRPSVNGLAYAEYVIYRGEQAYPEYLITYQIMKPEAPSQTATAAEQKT
T2 sequence (O95271 1023-1327): as above
T1 sequence (Q9H2K2 873-1166): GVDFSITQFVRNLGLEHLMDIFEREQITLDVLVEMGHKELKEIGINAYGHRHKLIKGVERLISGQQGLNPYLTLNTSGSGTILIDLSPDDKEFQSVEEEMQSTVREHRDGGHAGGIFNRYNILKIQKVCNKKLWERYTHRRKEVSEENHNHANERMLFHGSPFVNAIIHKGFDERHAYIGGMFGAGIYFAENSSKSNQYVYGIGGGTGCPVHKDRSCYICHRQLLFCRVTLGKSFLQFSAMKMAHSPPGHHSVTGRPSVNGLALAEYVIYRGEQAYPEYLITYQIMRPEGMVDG
T3 sequence (Q9H2K2 873-1166): as above
T5 sequence (P09874 whole entry): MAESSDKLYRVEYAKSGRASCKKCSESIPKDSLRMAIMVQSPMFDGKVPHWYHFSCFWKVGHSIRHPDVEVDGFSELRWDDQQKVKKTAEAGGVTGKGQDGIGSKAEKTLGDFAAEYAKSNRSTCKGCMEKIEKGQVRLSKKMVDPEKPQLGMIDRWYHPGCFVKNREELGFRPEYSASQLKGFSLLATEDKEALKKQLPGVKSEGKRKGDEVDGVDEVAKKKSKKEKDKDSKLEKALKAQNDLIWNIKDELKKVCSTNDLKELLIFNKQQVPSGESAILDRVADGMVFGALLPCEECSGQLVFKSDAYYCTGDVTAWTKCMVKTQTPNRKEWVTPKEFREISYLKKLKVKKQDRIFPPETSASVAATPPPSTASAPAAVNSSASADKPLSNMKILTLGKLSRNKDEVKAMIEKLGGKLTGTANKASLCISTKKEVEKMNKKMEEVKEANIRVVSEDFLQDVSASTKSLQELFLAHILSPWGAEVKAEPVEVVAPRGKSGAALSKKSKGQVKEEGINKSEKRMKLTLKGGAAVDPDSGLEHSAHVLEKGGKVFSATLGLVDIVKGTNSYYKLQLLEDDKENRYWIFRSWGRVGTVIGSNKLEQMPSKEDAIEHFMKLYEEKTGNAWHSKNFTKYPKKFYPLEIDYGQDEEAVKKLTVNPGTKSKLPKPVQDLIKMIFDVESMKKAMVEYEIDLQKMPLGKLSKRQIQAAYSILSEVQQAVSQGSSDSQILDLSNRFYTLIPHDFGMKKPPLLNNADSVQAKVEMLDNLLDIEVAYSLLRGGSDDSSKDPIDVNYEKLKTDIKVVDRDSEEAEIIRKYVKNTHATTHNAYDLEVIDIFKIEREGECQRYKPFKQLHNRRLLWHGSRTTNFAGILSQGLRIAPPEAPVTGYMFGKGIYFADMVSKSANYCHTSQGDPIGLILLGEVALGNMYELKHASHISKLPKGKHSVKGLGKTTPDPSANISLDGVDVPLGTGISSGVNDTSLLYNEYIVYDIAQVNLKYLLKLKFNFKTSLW

IC50 [7] [µM] | SMILES | growth of DLD-1-cancer cells [1] | IC50 [2] [µM] | IC50 [3] [µM] | EC50 [4] [µM] | IC50 [5] [µM] | IC50 [6] [µM]
 | Oc1nc(-c2ccc(C(F)(F)F)cc2)nc2c1CSCC2 [XAV939] | inhibits growth |  |  |  |  | 
 | O=c1[nH]c(N2CCN(c3ccc(Cl)cc3)CC2)nc2c1CCCC2 [Compound A8, 2-[4-(4-Chlorophenyl)piperazin-1-yl]-5,6,7,8-tetrahydro-3H-quinazolin-4-one] |  | 0.3 to 3 | 0.3 to 3 | 3 to 50 | < 0.3 | < 0.3
 | COc1ccc(N2CCN(c3nc4c(c(=O)[nH]3)CCCC4)CC2)c(OC)c1 [Compound A37, 2-[4-(2,4-dimethoxyphenyl)piperazin-1-yl]-5,6,7,8-tetrahydro-3H-quinazolin-4-one] |  | 0.3 to 3 | 0.3 to 3 | 0.3 to 3 | < 0.3 | < 0.3
 | COc1ccc(N2CCN(c3nc4c(c(=O)[nH]3)CCCC4)CC2)cn1 [Compound A51, 2-[4-(6-methoxy-3-pyridyl)piperazin-1-yl]-5,6,7,8-tetrahydro-3H-quinazolin-4-one] |  | 0.3 to 3 | 0.3 to 3 | 0.3 to 3 | 0.3 to 3 | 0.3 to 3
 | O=c1[nH]c(N2CCN(c3cccc(F)c3)CC2)nc2c1CCCC2 [Compound A5, 2-[4-(3-Fluorophenyl)piperazin-1-yl]-5,6,7,8-tetrahydro-3H-quinazolin-4-one] |  | 0.3 to 3 | 0.3 to 3 | 3 to 50 | < 0.3 | < 0.3
 | O=c1[nH]c(N2CCC(C(F)(F)F)CC2)nc2c1CCCC2 [Compound A10, 2-(4-Trifluoromethylpiperidin-1-yl)-5,6,7,8-tetrahydro-3H-quinazolin-4-one] |  | 0.3 to 3 | 0.3 to 3 | 3 to 50 | < 0.3 | < 0.3
 | O=c1[nH]c(N2CCN(c3ccccc3C(F)(F)F)CC2)nc2c1CCCC2 [Compound A56, 2-[4-(2-trifluoromethyl-phenyl)-piperazin-1-yl]-5,6,7,8-tetrahydro-3H-quinazolin-4-one] |  | 0.3 to 3 | < 0.3 | 0.3 to 3 | < 0.3 | < 0.3
 | O=c1[nH]c(N2CCN(c3ccc(F)cc3Cl)CC2)nc2c1CCCC2 [Compound A39, 2-[4-(2-chloro-4-fluoro-phenyl)piperazin-1-yl]-5,6,7,8-tetrahydro-3H-quinazolin-4-one] |  | 0.3 to 3 | 0.3 to 3 | 0.3 to 3 | < 0.3 | < 0.3
 | O=c1[nH]c(N2CCN(c3cccc(Cl)c3)CC2)nc2c1CCCC2 [Compound A11, 2-[4-(3-Chlorophenyl)piperazin-1-yl]-5,6,7,8-tetrahydro-3H-quinazolin-4-one] |  | 0.3 to 3 | 0.3 to 3 | 0.3 to 3 | < 0.3 | < 0.3
 | COc1ccccc1C1CCN(c2nc3c(c(=O)[nH]2)CCCC3)CC1 [Compound A54, 2-[4-(2-methoxy-phenyl)-piperidin-1-yl]-5,6,7,8-tetrahydro-3H-quinazolin-4-one] |  | 0.3 to 3 | < 0.3 | 0.3 to 3 | < 0.3 | < 0.3
< 0.3 | NC(=O)c1ccccc1N1CCN(c2nc3c(c(=O)[nH]2)CCCC3)CC1 [Compound A34, 2-[4-(4-oxo-5,6,7,8-tetrahydro-3H-quinazolin-2-yl)piperazin-1-yl]benzamide] |  | 0.3 to 3 | < 0.3 |  | < 0.3 | < 0.3
